# Experimental data from ChEMBL document CHEMBL1201862, “PubChem BioAssay data set” (2004).
# Active and inactive are the calls of the source.
# How the values were obtained:
# [1] = molecular target: DNA dC->dU-editing enzyme APOBEC-3G (Homo sapiens, UniProt Q9HC16); assay type: functional;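 also: Dose-response counterscreen measuring inhibition of APOBEC3G DNA deaminase activity, run while confirming APOBEC3A inhibitors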
# [2] = molecular target: DNA dC->dU-editing enzyme APOBEC-3A (Homo sapiens, UniProt P31941); experiment: Dose Response confirmation of small molecule APOBEC3A DNA Deaminase Inhibitors via a fluorescence-based single-stranded DNA deaminase assay. [Related pubchem assays (depositor defined):AID493011, AID493024]; assay type: functional
# DNA dC->dU-editing enzyme APOBEC-3A, sequence (P31941 whole entry, the tested form may be a part): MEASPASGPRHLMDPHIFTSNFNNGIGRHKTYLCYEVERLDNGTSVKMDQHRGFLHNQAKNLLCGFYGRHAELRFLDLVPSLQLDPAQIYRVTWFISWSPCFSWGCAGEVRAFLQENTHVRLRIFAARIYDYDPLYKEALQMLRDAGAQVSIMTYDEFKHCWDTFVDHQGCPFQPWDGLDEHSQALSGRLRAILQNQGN
# [3] = molecular target: T1, Carboxy-terminal domain RNA polymerase II polypeptide A small phosphatase 1 (Homo sapiens, UniProt Q9GZU7); experiment: inhibitors of CTDSP1, concentration-response testing, biochemical assay, absorbance-based, actives from ultra-high-throughput screening (AID 540297); assay type: functional
# T1 sequence (Q9GZU7 whole entry): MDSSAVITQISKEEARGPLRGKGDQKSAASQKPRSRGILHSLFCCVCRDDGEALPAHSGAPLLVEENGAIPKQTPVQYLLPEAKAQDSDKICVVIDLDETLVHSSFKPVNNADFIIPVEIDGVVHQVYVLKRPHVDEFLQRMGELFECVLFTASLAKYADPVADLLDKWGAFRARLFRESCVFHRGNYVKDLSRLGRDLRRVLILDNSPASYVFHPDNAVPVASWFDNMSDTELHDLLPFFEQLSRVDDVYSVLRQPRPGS
# [4] = cytotoxicity toward NIH3T3 fibroblasts, dose response, counter-screen, cell-based, ATP luminescence, mouse fibroblasts (AID 2010); assay type: functional;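 also: cells exposed to compound for about 90 hours before reading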
# [5] = inhibitors of intracellular T. cruzi replication, confirmation, NIH3T3 host cells, beta-gal luminescence (AID 2044); assay type: functional, cell-based;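 also: intracellular parasites grown in NIH/3T3 mouse fibroblasts as host cells; luminescent beta-galactosidase reporter signal from transgenic T. cruzi replicating inside host cells; inhibitors lower the luminescence signal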
# CAAX prenyl protease 2 [6] = molecular target: T2, CAAX prenyl protease 2 (Saccharomyces cerevisiae S288c, UniProt Q03530); assay type: biochemical
# T2 sequence (Q03530 whole entry): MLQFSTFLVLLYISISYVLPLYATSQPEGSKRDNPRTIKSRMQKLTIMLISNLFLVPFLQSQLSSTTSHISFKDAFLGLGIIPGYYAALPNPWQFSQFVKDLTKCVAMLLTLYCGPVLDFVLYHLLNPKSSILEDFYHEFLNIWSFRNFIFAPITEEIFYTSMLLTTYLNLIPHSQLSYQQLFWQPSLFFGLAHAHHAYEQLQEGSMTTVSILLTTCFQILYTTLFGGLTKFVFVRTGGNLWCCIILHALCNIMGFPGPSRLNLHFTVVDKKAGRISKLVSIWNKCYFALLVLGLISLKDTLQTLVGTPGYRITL
# Bcl-2-related protein A1 = molecular target: T3, Bcl-2-related protein A1 (Mus musculus, UniProt Q07440); assay type: functional;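 also: confirmatory dose–response counterscreen on Bfl-1, used to check hits from a UBC13 polyubiquitin inhibitor campaign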
# T3 sequence (Q07440 whole entry): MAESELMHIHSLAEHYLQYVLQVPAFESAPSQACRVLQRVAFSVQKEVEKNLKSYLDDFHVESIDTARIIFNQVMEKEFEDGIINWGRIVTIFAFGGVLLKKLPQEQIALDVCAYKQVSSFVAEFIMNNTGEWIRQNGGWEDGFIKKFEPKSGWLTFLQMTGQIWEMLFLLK
# [7] = molecular target: T4, Ubiquitin-conjugating enzyme E2 N (Homo sapiens, UniProt P61088); assay type: functional
# T4 sequence (P61088 whole entry): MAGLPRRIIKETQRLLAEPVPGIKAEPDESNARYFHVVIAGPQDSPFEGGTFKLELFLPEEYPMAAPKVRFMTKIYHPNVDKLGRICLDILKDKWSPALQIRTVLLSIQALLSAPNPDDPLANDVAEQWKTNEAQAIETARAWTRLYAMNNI
# [8] = molecular target: T4, Ubiquitin-conjugating enzyme E2 N; assay type: functional; remark: listed apart in the source
# Trypsin = Trypsin (Sus scrofa, UniProt P00761); experiment: porcine trypsin inhibitors, dose response, selectivity assay for Rce1 protease inhibitor project, biochemical, quenched peptide fluorescence, cherry-pick (AID 488789)
# Trypsin, sequence (P00761 whole entry): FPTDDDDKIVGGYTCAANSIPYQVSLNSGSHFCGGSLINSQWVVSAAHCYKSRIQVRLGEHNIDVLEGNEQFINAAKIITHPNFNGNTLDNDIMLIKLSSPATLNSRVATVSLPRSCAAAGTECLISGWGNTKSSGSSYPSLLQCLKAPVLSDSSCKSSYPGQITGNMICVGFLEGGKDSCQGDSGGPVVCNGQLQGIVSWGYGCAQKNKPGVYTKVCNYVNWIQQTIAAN
# [9] = THP-1 cell cytotoxicity, dose response, cytotoxicity control for non-replicating M. tuberculosis project (AID 489025); assay type: functional
# cells = assay type: functional
# [10] = Vero E6 cell cytotoxicity, dose response, cytotoxicity control for non-replicating M. tuberculosis project, secondary assay (AID 492998); assay type: functional, VeroE6; conditions: Vero C1008
# HEK293 [11] = experiment: cells; assay type: functional, cell-based; conditions: Homo sapiens
# HEK293 [12] = experiment: NOD1 signaling inhibitors, primary screen, cell-based, luminescence, uHTS (AID 1578); assay type: functional; conditions: Homo sapiens
# HEK293 [13] = experiment: NOD2 signaling inhibitors in MDP-stimulated cells, cell-based, uHTS, luminescence (AID 2001); assay type: functional; conditions: Homo sapiens
# HEK293 [14] = experiment: cells; assay type: functional, cell-based; conditions: Homo sapiens; remark: listed apart in the source
# CAAX prenyl protease 2 [15] = molecular target: T5, CAAX prenyl protease 2 (Homo sapiens, UniProt Q9Y256); experiment: human Rce1 protease inhibitors, dose response, biochemical, yeast membranes, quenched-peptide fluorescence, cherry-pick (AID 588849)
# T5 sequence (Q9Y256 whole entry): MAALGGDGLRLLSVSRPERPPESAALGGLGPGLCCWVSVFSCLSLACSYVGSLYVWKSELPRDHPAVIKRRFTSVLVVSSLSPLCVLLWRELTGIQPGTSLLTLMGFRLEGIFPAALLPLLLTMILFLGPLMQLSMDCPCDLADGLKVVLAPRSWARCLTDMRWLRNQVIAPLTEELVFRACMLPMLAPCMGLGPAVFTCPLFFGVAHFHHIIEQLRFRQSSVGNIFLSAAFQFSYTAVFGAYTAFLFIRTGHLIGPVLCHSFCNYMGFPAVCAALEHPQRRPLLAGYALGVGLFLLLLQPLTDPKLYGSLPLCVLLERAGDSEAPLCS
# [16] = molecular target: T6, Heat shock factor protein 1 (Mus musculus, UniProt P38532); experiment: inhibition of MG132-induced HSE-luciferase signal, confirmation, cell-based, NIH3T3, luminescence, dose retest (AID 2382); assay type: functional;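 also: NIH3T3 fibroblasts with HSF1-driven luciferase reporter stressed by proteasome inhibitor MG132; luminescence from HSF1-driven luciferase expression after 8 hours of MG132 stress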
# T6 sequence (P38532 whole entry): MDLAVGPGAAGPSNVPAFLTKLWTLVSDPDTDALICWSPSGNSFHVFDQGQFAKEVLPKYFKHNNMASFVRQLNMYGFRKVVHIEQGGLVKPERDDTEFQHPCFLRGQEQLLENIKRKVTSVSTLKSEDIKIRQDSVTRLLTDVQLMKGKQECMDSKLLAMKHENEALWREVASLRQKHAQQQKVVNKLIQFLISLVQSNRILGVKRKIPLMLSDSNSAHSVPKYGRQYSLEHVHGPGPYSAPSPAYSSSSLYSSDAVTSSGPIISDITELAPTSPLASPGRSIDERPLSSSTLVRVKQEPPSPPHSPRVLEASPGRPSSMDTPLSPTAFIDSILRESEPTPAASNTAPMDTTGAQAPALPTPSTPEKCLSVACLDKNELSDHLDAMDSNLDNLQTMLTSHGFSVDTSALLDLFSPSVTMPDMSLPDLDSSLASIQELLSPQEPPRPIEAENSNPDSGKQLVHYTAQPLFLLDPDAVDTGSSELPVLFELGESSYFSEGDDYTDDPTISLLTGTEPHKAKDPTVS
# [17] = tested on: Streptococcus sp. 'group A'; experiment: growth inhibition of control SK(-) GAS strain, dose response, counter-screen for streptokinase expression inhibitor project, luminescence, kanamycin, BacTiterGlo, confirmation (AID 1900); assay type: functional, organism-based
# Streptococcus = experiment: Group A Streptococcus viability loss, dose response, counter-screen for streptokinase expression inhibitor project, luminescence, BacTiterGlo (AID 1915); assay type: functional, organism-based;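 also: potency for reduction of bacterial viability or growth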
# [18] = Luminescence Cell-Based Dose Response HTS to Identify Inhibitors of 5'UTR Stem-Loop Driven Prion Protein mRNA Translation in H4 Neuroglioblastoma Cells. [Related pubchem assays: 1827 (Project Summary), 1813 (Primary HTS)]; assay type: functional
# [19] = molecular target: T7, RNA-binding protein pos-1 (Caenorhabditis elegans, UniProt G5EF15); experiment: inhibitors of POS-1/mex-3 RNA binding, dose response, biochemical, fluorescence polarization (AID 1964);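 also: purified POS-1 fused to maltose binding protein made in E. coli; potency of compounds blocking POS-1 binding to fluorescent RNA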
# T7 sequence (G5EF15 whole entry): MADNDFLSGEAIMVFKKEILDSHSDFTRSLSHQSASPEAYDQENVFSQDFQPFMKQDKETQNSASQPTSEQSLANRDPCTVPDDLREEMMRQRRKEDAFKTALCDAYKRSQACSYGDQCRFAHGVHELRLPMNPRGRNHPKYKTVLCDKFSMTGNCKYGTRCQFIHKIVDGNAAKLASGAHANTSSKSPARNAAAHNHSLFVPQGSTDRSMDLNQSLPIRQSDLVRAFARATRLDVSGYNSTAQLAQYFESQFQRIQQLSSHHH
# [20] = inhibitors of SNCA 5'UTR-driven reporter translation, confirmation, H4 neuroglioma cells, luminescence (AID 1988); assay type: functional, cell-based
# [21] = inhibitors of firefly luciferase expression or activity, dose response, H4 neuroglioma cells, luminescence (AID 1990); assay type: functional, cell-based
# [22] = molecular target: T8, Endoribonuclease toxin MazF (Escherichia coli K-12, UniProt P0AE70); experiment: MazF toxin RNase activators, dose response, biochemical, fluorescence, single-stranded RNA substrate, uHTS hits (AID 588481); assay type: functional
# T8 sequence (P0AE70 whole entry): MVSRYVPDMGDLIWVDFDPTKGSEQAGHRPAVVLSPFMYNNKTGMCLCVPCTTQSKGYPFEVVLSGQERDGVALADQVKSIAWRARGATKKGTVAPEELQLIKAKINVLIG
# [23] = molecular target: T8, Endoribonuclease toxin MazF; experiment: fluorescent RNA oligo signal without MazF, dose response, counter-screen for MazEF activator project, biochemical, fluorescence, single-stranded RNase substrate (AID 588502); assay type: functional
# HEK293 [24] = experiment: inhibitors of LMP1-driven NF-kB reporter, dose response, cell-based, HEK293, luciferase, cherry-pick (AID 588343); assay type: functional; conditions: Homo sapiens
# [25] = LGR2 antagonists, dose response, cell-based, HEK293, CRE-luciferase reporter, cherry pick, set 2 (AID 743343); assay type: functional;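 also: transfected cells were stimulated with diluted bursicon conditioned medium after compound addition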
# [26] = MC4R antagonists, dose response, counter-screen for LGR2 antagonist project, cell-based, plate reader, cherry pick (AID 743444); assay type: functional;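 also: transfected HEK 293 cells stimulated with alpha-MSH peptide; potency of inhibitors of the alpha-MSH evoked signal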
# [27] = A549 cell cytotoxicity, dose response, cytotoxicity control, plate reader, cherry-pick, antagonist series (AID 743412); assay type: functional, cell-based
# [28] = HEK293 cell cytotoxicity, dose response, cytotoxicity control, plate reader, cherry-picked samples (AID 743446); assay type: functional, cell-based
# INS1 = experiment: beta cell apoptosis inhibitors, cytokine rescue, dose response, luminescence, retest (AID 449756); assay type: functional, cell-based; conditions: Rattus norvegicus;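 also: cell death triggered by IL-1 beta plus TNF-alpha plus IFN-gamma mixture; protective hits raise ATP signal compared with cytokine alone wells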
# DNA dC->dU-editing enzyme APOBEC-3G, sequence (Q9HC16 whole entry): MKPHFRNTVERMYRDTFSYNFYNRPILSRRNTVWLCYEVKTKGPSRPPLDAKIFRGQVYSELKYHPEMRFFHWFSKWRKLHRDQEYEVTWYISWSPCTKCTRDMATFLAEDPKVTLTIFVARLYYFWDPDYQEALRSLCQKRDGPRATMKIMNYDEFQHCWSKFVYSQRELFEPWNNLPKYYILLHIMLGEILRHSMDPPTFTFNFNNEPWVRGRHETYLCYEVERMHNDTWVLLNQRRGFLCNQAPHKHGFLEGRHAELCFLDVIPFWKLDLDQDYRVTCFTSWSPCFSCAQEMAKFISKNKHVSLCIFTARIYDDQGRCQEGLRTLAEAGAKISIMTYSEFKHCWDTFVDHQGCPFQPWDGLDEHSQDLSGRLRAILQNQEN
smiles,measurement,setting,value
C[N+](C)(C)CCCN(Cc1ccc2c(c1)OCO2)C(=O)NC1CCCCC1,IC50,[1],4.17 µM (active)
same,IC50,[2],2.43 µM (active)
same,IC50,[3],3.12 µM (active)
CNC(=O)OCc1n(C)cc[n+]1C,IC50,[1],1.31 µM (active)
same,IC50,[2],1.76 µM (active)
Cc1nc(N2CCOCC2)c2c(C)c(C(=O)Nc3ccc(C(F)(F)F)cc3)sc2n1,EC50,[4],> 60 µM (not active)
same,EC50,[5],0.522 µM (active)
same,AC50,CAAX prenyl protease 2 [6],5.99 µM (active)
Cc1ccc(C(C(=O)NCC2CCCO2)N(C(=O)c2snc(C(N)=O)c2N)c2ccc3c(c2)OCCO3)cc1 (configuration not stated),IC50,Bcl-2-related protein A1,> 20 µM (inactive)
same,IC50,[7],12.6 µM (active)
same,IC50,[8],13.1 µM (active)
Cc1cccc2[nH]c3c(N4CCC5(CC4)OCCO5)ncnc3c12,AC50,Trypsin,36.5 µM (active)
same,AC50,CAAX prenyl protease 2 [6],13.7 µM (active)
Cc1cc(Cl)ccc1OCC(=O)NNC(=O)c1cnccn1,CC50,[9],> 40 µM (active)
same,IC50,cells,5.5 µM (active)
same,CC50,[10],13.7 µM (active)
O=C(c1ccc(Cl)cc1)C1CCCN(Cc2ccc3ncccc3c2)C1 (configuration not stated),IC50,HEK293 [11],3.92 µM (active)
same,EC50,HEK293 [12],4.42 µM (active)
same,IC50,HEK293 [13],5.78 µM (active)
same,IC50,HEK293 [14],15.5 µM (active)
COc1ccc(C)c2sc(NC(=O)C3=COCCO3)nc12,AC50,CAAX prenyl protease 2 [15],13.4 µM (active)
same,EC50,[16],> 195 µM (not active)
same,AC50,Trypsin,18.8 µM (active)
CC/C(=C\C=C\[C@@H]1C=C[C@@H]2CCC[C@H]2[C@@H]1C(=O)c1ccc[nH]1)[C@@H]1O[C@@H]([C@@H](C)C(=O)O)CC[C@@H]1C,EC50,[17],0.202 µM (active)
same,CC50,[9],12.4 µM (active)
same,EC50,Streptococcus,0.147 µM (active)
same,CC50,[10],16.5 µM (active)
same,EC50,[18],14.4 µM (active)
same,EC50,[19],> 300 µM (inconclusive)
same,EC50,[20],> 120 µM (not active)
same,EC50,[21],14.2 µM (active)
Cc1nn(-c2ccccc2)c2nc(N)c(C(N)=O)cc12,AC50,CAAX prenyl protease 2 [15],21.3 µM (active)
same,AC50,Trypsin,37.9 µM (active)
Cc1ccc2c(n1)sc1c(-c3ccccc3)c(C#N)c(N)nc12,EC50,[22],> 99 µM (inactive)
same,EC50,[23],> 99 µM (inactive)
COc1ccc2nc(-c3ccc(C)cc3)cc(O)c2c1,AC50,HEK293 [24],2.68 µM (active)
Nc1c(C(=O)Nc2ccccc2)sc2nc3c(c(-c4ccco4)c12)CCC3,EC50,[22],11.3 µM (active)
same,EC50,[23],> 99 µM (inactive)
COc1cccc(-c2nc3cc(N4CCN(C)CC4)ccc3[nH]2)c1,AC50,[25],2.55 µM (active)
same,AC50,[26],1.57 µM (active)
same,AC50,HEK293 [24],0.857 µM (active)
same,EC50,[16],< 0.16 µM (active)
same,EC50,[18],5.7 µM (active)
same,AC50,[27],> 52 µM (inactive)
same,AC50,[28],> 52 µM (inactive)
same,EC50,[20],9.34 µM (inconclusive)
same,EC50,[21],9.73 µM (inconclusive)
CCC(=O)NC(c1cc(Cl)c2cccnc2c1O)C1CC1 (configuration not stated),AC50,INS1,1.89 µM (active)
same,AC50,HEK293 [24],10.1 µM (active)
COc1ccc(C2=NN(C(=O)CCC(=O)O)C(c3cccs3)C2)cc1 (configuration not stated),AC50,CAAX prenyl protease 2 [15],12.6 µM (active)
same,AC50,Trypsin,4.38 µM (active)
same,AC50,CAAX prenyl protease 2 [6],9.03 µM (active)
